Experimental data: patent US20070059769A1, “High throughput glycan microarrays” (priority 2004, published 2007)
Like-named read-outs stand apart in the source and are kept apart here.

How the values were obtained:
[1] = tested on: β3GlcNAcT; experiment: β3GlcNAcT acceptor specificity; details: acceptor substrate; lactose (4) = 100%
Procedure: Both enzymes, β4GalT-GalE and β3GlcNAcT, were over expressed in E. coli AD202 in a large-scale fermentor (100 L). Bacteria were cultured in 2YT medium and induced with iso-propyl-thiogalactopyranoside (IPTG) to ultimately produce 8-10 g of bacterial cell paste/L cell media. The enzymes were then released from the cells by a microfluidizer and were solubilized in Tris buffer (25 mM, pH 7.5) containing manganese chloride (10 mM) and Triton X (0.25%) to reach enzymatic activities of about 50 U/L and 115 U/L of cell culture β4GalT-GalE and β3GlcNAcT, respectively.

[2] = target: T1, chST6GalNAc-I (Gallus gallus, UniProt Q92183); experiment: chST6GalNAc-I activity on small acceptor molecules; format: biochemical, chicken; details: α-D-galacto derivative as acceptor
T1 construct: made in house; host or cells: insect cells
T1 sequence (Q92183 whole entry): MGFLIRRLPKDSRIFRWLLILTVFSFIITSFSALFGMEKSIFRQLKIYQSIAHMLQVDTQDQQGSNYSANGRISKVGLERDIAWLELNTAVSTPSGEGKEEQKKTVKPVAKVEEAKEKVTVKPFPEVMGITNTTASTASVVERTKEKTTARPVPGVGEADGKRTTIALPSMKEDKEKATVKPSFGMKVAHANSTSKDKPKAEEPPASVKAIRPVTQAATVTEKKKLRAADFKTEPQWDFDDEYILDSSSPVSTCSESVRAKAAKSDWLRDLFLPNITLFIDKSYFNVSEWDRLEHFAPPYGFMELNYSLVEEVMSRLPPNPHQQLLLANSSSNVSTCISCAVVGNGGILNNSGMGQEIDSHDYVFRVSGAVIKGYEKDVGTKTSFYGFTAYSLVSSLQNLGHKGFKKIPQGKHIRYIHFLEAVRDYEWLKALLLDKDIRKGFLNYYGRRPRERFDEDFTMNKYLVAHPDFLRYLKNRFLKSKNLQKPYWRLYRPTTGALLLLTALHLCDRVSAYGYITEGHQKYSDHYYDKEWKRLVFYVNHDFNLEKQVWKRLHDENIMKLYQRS
Source text: The inventors have previously reported the cloning, expression, and characterization of chicken ST6GalNAc-I and its use in preparative synthesis of the O-linked sialoside antigens, STn-, α(2-6)SiaT-, α(2-3)SiaT- and Di-SiaT-antigen. Blixt, O.; Allin, K.; Pereira, L.; Datta, A. and Paulson, J. C., J. Am. Chem. Soc. 2002, 124, 5739-5746. Briefly, the recombinant enzyme was expressed in insect cells and purified by CDP-sepharose affinity chromatography to generate approximately 10 U/L of cell culture.

[3] = tested on: anti-carbohydrate antibodies in sera of metastatic breast cancer patients; experiment: glycan array binding of antibodies in sera of metastatic breast cancer patients; set-up: species or system human; details: sera diluted 1:25
Procedure: Individual (not pooled) sera were collected from 9 patients who were diagnosed with metastatic breast cancer (MBC). Blood samples were collected before treatment, so that therapeutic intervention would not interfere with patient immune responses. One patient with breast cancer but with good prognosis (IDC, Stage 1) was also included in the study. As control, or “healthy” sera, sera from ten healthy individuals, 5 female and 5 male, with no known malignancies was collected.
(§1) Sera were diluted 1:25 with PBS containing 3% BSA, and placed on the glycan array slide in humidified chamber at room temperature for 90 min. The glycan array slide was then rinsed gently with PBS/0.05% Tween, incubated with biotinylated goat antibody against human IgG, IgM and IgA, rinsed in PBS/0.05% Tween, and incubated with streptavidin-Alexa488 fluorescent dye. Following rinses in PBS/0.05% Tween and H2O, glycan array slides were dried and scanned using the commercial DNA array scanner. […] Signal to background was typically greater 50:1 and no background subtractions were performed. Data were plotted using MS Excel software.

[4] = tested on: serum antibodies of xenotransplant recipients; experiment: glycan array binding of antibodies in sera of recipients of porcine fetal pancreas islet-like cell clusters; set-up: species or system human; details: before and 1, 6, 12 months after transplantation
Procedure: In 1991-1994, several diabetic (I) patients received transplantation of porcine fetal pancreas islet-like cell clusters (ICC). See, Groth, C. G. et al. Transplantation of porcine fetal pancreas to diabetic patients, The Lancet 344: 1402-4 (1994). The inventor analyzed serum from three of these patients before transplant (t=0), 1 months after (t=1), 6 months after (t=2) and 12 months after (t=3) transplant.
as §1, with “as needed” for “1:25”

[5] = tested on: 2G12; experiment: glycan array binding of anti-HIV 2G12 monoclonal antibody; set-up: species or system human
[6] = target: Concanavalin A (Canavalia ensiformis, UniProt P02866); details: printing times up to 5 hours
Procedure: Glycan Binding Protein binding assay. Printed slides were analyzed without any further modification of the surface. […] GBP's were added at a concentration of 5-50 μg/mL in buffer (usually PBS containing 0.005-0.5% Tween-20). […] Slides were subsequently washed by successive rinses in (i) PBS-Tween (0.05%), (ii) PBS and (iii) de-ionized water, then immediately subjected to imaging.
Image acquisition and signal processing. Fluorescence intensities were detected using a ScanArray 5000 (Perkin Elmer, Boston, Mass.) confocal scanner and image analyses were carried out using ImaGene image analysis software (BioDiscovery Inc, El Segundo, Calif.). Signal to background was typically greater than 50:1 and no background subtractions were performed.
Binding of fluorescein-labeled concanavalin A (con A) was used as a measure of ligand coupling.

OCC1O[C@@H](O)C(O)[C@@H](O)[C@@H]1O[C@@H]1OC(CO)[C@H](O)[C@H](O)C1O (stereo partly shown) [Acceptor 4, Galβ(1-4)Glc]
Relative enzyme activity (%) β(1-3)GlcNAcT-activity [1]: 100%

O=[N+]([O-])c1ccc(O[C@@H]2OC(CO)[C@@H](O[C@@H]3OC(CO)[C@H](O)[C@H](O)C3O)[C@H](O)C2O)cc1 (stereo partly shown) [Compound 5]
Relative enzyme activity (%) β(1-3)GlcNAcT-activity [1]: 945%

CC(=O)N[C@H]1C(O)O[C@H](CO)[C@H](O)[C@@H]1O (stereo partly drawn) [D-GalNAc]
chST6GalNAc-I activity, cpm [2]: 0 cpm | chST6GalNAc-I activity, nmol/mg × min^−1 [2]: 0.00 nmol/mg × min^−1

CC(=O)N[C@H]1[C@H](O[C@H]2[C@@H](O)[C@@H](CO)O[C@@H](O[C@H]3[C@H](O)[C@@H](O)C(O)O[C@@H]3CO)[C@@H]2O)O[C@H](CO)[C@@H](O)[C@@H]1O (stereo partly drawn) [LNT-2, GlcNAc-beta3-Gal-beta4-Glc-beta]
binding by / level of serum antibodies in metastatic breast cancer patients versus healthy individuals [3]: bind and higher than in the healthy individuals

Fucose-alpha2-Gal-beta3-GalNAc-beta3-Gal-alpha4-Gal-beta4-Glc [Globo-H]
binding by / level of serum antibodies in metastatic breast cancer patients versus healthy individuals [3]: bind and higher than in the healthy individuals

Gal-beta3-GalNAc-beta4-[Neu5Ac-alpha3]-Gal-beta4-Glc-beta [GM1]
binding by / level of serum antibodies in metastatic breast cancer patients versus healthy individuals [3]: bind and higher than in the healthy individuals

Galα1-3Galβ1-4(Fucα1-3)GlcNAcβSp [Glycan 34]
reactivity of serum antibodies of xenotransplant recipients [4]: clearly exhibit an immune response

Galβ1-4(Fucα1-3)GlcNAcβSp [Glycan 65]
reactivity of serum antibodies of xenotransplant recipients [4]: do not have antibodies

Galβ(1-4)GlcNAc [Acceptor 6]
Relative enzyme activity (%) β(1-3)GlcNAcT-activity [1]: 7-8%

Manα1-2Manα1-2Manα1-3(Manα1-2Manα1-3(Manα1-2Manα1-6)Manα1-6)Manβ1-4GlcNAcβ1-4GlcNAcβSp [Glycan 145]
binding of 2G12 ([5]; listed as Man9): relatively weakly bound | binding of 2G12 ([5]; listed as Man-9-N-glycans): smaller level of binding

Manα1-2Manα1-3(Manα1-2Manα1-6)ManαSp [Glycan 136]
binding of 2G12 [5]: strong binding | Rel. spec. (relative binding activity of 2G12) ([5]; 2G12 30 μg/mL pre-complexed with goat anti-human-IgG-FITC): +++ (+++ >25,000) | variation in maximal binding of con A [6]: less than 10%

Manα1-2Manα1-6(Manα1-3)Manα1-6(Manα1-2Manα1-3)Manβ1-4GlcNAcβ1-4GlcNAcβSp [Glycan 144]
binding of 2G12 [5]: strong preference

Manα1-3Manα1-6(Manα1-2Manα1-3)Manβ1-4GlcNAcβ1-4GlcNAcβSp [Glycan 140]
binding of 2G12 [5]: did not support binding at all

Manα1-6(Manα1-2Manα1-3)Manα1-6(Manα1-2Manα1-3)Manβ1-4GlcNAcβ1-4GlcNAcβSp [Glycan 143]
binding of 2G12 [5]: did not support binding at all

Manα1-6(Manα1-3)Manα1-6(Manα1-2Manα1-3)Manβ1-4GlcNAcβ1-4GlcNAcβSp [Glycan 142]
binding of 2G12 [5]: did not support binding at all

Neu5Acα2-6GalNAcα-
binding by / level of serum antibodies in metastatic breast cancer patients versus healthy individuals [3]: significantly higher levels

Neu5Gc(2-6)GalNAc
binding by / level of serum antibodies in metastatic breast cancer patients versus healthy individuals [3]: bind

B1: Ceruloplasmine (protein, UniProt P00450 20-1065, looked up)
Ceruloplasmin: KEKHYYIGIIETTWDYASDHGEKKLISVDTEHSNIYLQNGPDRIGRLYKKALYLQYTDETFRTTIEKPVWLGFLGPIIKAETGDKVYVHLKNLASRPYTFHSHGITYYKEHEGAIYPDNTTDFQRADDKVYPGEQYTYMLLATEEQSPGEGDGNCVTRIYHSHIDAPKDIASGLIGPLIICKKDSLDKEKEKHIDREFVVMFSVVDENFSWYLEDNIKTYCSEPEKVDKDNEDFQESNRMYSVNGYTFGSLPGLSMCAEDRVKWYLFGMGNEVDVHAAFFHGQALTNKNYRIDTINLFPATLFDAYMVAQNPGEWMLSCQNLNHLKAGLQAFFQVQECNKSSSKDNIRGKHVRHYYIAAEEIIWNYAPSGIDIFTKENLTAPGSDSAVFFEQGTTRIGGSYKKLVYREYTDASFTNRKERGPEEEHLGILGPVIWAEVGDTIRVTFHNKGAYPLSIEPIGVRFNKNNEGTYYSPNYNPQSRSVPPSASHVAPTETFTYEWTVPKEVGPTNADPVCLAKMYYSAVEPTKDIFTGLIGPMKICKKGSLHANGRQKDVDKEFYLFPTVFDENESLLLEDNIRMFTTAPDQVDKEDEDFQESNKMHSMNGFMYGNQPGLTMCKGDSVVWYLFSAGNEADVHGIYFSGNTYLWRGERRDTANLFPQTSLTLHMWPDTEGTFNVECLTTDHYTGGMKQKYTVNQCRRQSEDSTFYLGERTYYIAAVEVEWDYSPQREWEKELHHLQEQNVSNAFLDKGEFYIGSKYKKVVYRQYTDSTFRVPVERKAEEEHLGILGPQLHADVGDKVKIIFKNMATRPYSIHAHGVQTESSTVTPTLPGETLTYVWKIPERSGAGTEDSACIPWAYYSTVDQVKDLYSGLIGPLIVCRRPYLKVFNPRRKLEFALLFLVFDENESWYLDDNIKTYSDHPEKVNKDDEEFIESNKMHAINGRMFGNLQGLTMHVGDEVNWYLMGMGNEIDLHTVHFHGHSFQYKHRGVYSSDVFDIFPGTYQTLEMFPRTPGIWLLHCHVTDHIHAGMETTYTVLQNEDTKSG
modifications: N-glycans
notes: mixture of bi and tri- and tetra-antenary N-glycans
binding by / level of serum antibodies in metastatic breast cancer patients versus healthy individuals [3]: bind and significantly higher levels
